Data taken from ChEMBL document CHEMBL1131101, “2-, 5-, and 6-Halo-3-(2(S)-azetidinylmethoxy)pyridines: synthesis, affinity for nicotinic acetylcholine receptors, and molecular modeling” (J Med Chem, 1998).

The compounds below were run against Neuronal acetylcholine receptor; alpha4/beta2 (Rattus norvegicus, UniProt P09483+P12390) (assay: Binding affinity for alpha4 beta-2 nAChR using [3H]epibatidine in rat brain).
Sequence of Neuronal acetylcholine receptor; alpha4/beta2 (P09483 whole entry): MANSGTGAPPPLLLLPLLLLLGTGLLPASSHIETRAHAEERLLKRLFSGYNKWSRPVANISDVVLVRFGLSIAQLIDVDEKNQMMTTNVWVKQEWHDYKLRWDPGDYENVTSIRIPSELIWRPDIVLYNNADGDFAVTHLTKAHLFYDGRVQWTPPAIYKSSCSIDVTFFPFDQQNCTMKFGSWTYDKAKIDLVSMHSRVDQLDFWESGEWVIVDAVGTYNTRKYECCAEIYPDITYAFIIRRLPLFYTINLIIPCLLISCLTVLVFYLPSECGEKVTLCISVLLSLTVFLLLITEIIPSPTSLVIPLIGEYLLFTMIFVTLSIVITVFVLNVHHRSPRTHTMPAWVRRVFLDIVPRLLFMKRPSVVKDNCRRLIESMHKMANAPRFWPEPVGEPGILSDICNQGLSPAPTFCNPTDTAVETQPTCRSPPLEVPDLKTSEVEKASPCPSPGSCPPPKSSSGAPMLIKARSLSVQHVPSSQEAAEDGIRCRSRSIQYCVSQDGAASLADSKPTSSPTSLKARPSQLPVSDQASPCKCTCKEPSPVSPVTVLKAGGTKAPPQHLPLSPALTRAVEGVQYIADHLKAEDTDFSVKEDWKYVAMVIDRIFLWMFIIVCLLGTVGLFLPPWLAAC
Sequence of Neuronal acetylcholine receptor; alpha4/beta2 (P12390 whole entry): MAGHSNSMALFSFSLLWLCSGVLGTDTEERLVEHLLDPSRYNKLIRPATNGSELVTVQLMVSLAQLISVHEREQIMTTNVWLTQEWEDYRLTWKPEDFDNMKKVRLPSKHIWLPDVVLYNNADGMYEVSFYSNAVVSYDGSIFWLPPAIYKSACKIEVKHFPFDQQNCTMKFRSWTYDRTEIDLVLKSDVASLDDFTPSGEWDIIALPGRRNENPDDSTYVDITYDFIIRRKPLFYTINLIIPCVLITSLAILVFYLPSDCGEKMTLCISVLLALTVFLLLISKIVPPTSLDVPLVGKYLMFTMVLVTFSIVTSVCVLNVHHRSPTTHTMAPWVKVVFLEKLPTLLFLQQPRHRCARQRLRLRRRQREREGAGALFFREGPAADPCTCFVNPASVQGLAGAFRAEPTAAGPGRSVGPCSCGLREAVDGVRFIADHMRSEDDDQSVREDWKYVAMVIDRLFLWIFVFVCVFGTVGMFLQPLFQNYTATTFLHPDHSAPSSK
Type: tissue-based
In the case of `Ic1ncccc1OC[C@@H]1CCN1`, the Ki is reported as greater than 1 pM.
`Ic1ccc(OC[C@@H]2CCN2)cn1` was tested, and the Ki was 150 pM.
`Brc1ncccc1OC[C@@H]1CCN1` showed a Ki of 240 pM.
In the case of `Fc1ccc(OC[C@@H]2CCN2)cn1`, the Ki is reported as 25 pM.
`c1cncc(OC[C@@H]2CCN2)c1` showed a Ki of 17 pM.
With `Clc1ncccc1OC[C@@H]1CCN1` the Ki was 8.4 pM.
For `Clc1cncc(OC[C@@H]2CCN2)c1`, the Ki was 30 pM.
`Fc1cncc(OC[C@@H]2CCN2)c1` was tested, and the Ki was 25 pM.
Compound `Brc1cncc(OC[C@@H]2CCN2)c1` has a Ki of 21 pM.
